Test results: DBAASP
In brackets after ≈: the same amount, converted by molar mass. Several values for one entry are separate records, joined by “and”; a condition that tells them apart may be missing. Equal values may be shown once. One block for each compound: values may come before it.

Assays:
Test in all cases: ≥ marks a high value that may be exact or a test limit, other limits are often not marked, values filed in µg/mL are converted to µM
[1] = test system: Staphylococcus aureus ATCC 25923
[2] = test system: Batrachochytrium dendrobatidis JEL-197
[3] = test system: Escherichia coli ATCC 25726
[4] = test system: Enterococcus faecalis W61950
[5] = test system: Enterococcus faecalis f43559
[6] = test system: Enterococcus faecalis ATCC 29212
[7] = test system: Pseudomonas aeruginosa LES400
[8] = test system: Pseudomonas aeruginosa 198
[9] = test system: Pseudomonas aeruginosa H1030
[10] = test system: Klebsiella pneumoniae ESBL 61962
[11] = test system: Enterococcus faecium t62764
[12] = test system: Enterobacter cloacae 218R
[13] = test system: Staphylococcus aureus C623
[14] = test system: Pseudomonas aeruginosa 213
[15] = test system: Pseudomonas aeruginosa H1027
[16] = test system: Stenotrophomonas maltophilia ATCC 13637
[17] = test system: Escherichia coli ESBL 64771
[18] = test system: Klebsiella pneumoniae ESBL 63575
[19] = test system: Pseudomonas aeruginosa PAO1 H103
[20] = test system: Escherichia coli ESBL 63103
[21] = test system: Enterococcus faecium mic80
Pseudomonas aeruginosa 9 = test system: Pseudomonas aeruginosa 9
[22] = test system: Micrococcus luteus AB93113
Micrococcus luteus = test system: Micrococcus luteus
Escherichia coli = test system: Escherichia coli
Pseudomonas aeruginosa = test system: Pseudomonas aeruginosa
Staphylococcus aureus = test system: Staphylococcus aureus
Bacillus subtilis = test system: Bacillus subtilis
[23] = test system: Bacillus subtilis AB91021
[24] = test system: Candida albicans ATCC 1023
[25] = test system: Enterococcus faecalis NCTC 12697
Candida albicans = test system: Candida albicans
Candida tropicalis = test system: Candida tropicalis
[26] = test system: Staphylococcus aureus NCTC 10788
[27] = test system: Pseudomonas aeruginosa ATCC 27853
[28] = test system: Escherichia coli ATCC 25922
[29] = test system: Escherichia coli NCTC 10418
[30] = test system: Staphylococcus aureus ATCC 43300
Vibrio cholerae CUN 09 = test system: Vibrio cholerae CUN 09
[31] = test system: Bordetella bronchiseptica CUN 11844-99
[32] = test system: Pseudomonas aeruginosa CUN 4158-02

Compound: CC[C@H](C)[C@H](NC(=O)[C@@H](NC(=O)[C@@H]1CCCN1C(=O)[C@H](CC(C)C)NC(=O)[C@@H](N)Cc1ccccc1)[C@@H](C)CC)C(=O)N[C@H](C(=O)N[C@@H](CC(N)=O)C(=O)N[C@@H](CC(C)C)C(=O)N[C@@H](CC(C)C)C(=O)NCC(=O)N[C@@H](CCCCN)C(=O)N[C@@H](CC(C)C)C(=O)N[C@@H](CC(C)C)C(N)=O)[C@@H](C)O [FLPIITNLLGKLL]
MIC [1]: 6 µM (≈ 8.72 µg/mL) | MIC [2]: ≥ 100 µM | MIC [3]: ≥ 100 µM

Compound: CC[C@H](C)[C@H](NC(=O)[C@H](Cc1ccccc1)NC(=O)[C@H](CCCCN)NC(=O)[C@H](Cc1ccccc1)NC(=O)[C@H](CCCN=C(N)N)NC(=O)[C@@H](N)CCCN=C(N)N)C(=O)N[C@@H](CCCN=C(N)N)C(=O)N[C@@H](Cc1c[nH]c2ccccc12)C(=O)N[C@@H](Cc1c[nH]c2ccccc12)C(=O)O [RRFKFIRWW]
MIC [4]: ≥ 50.2 µM | MIC [1]: 3.15 µM (≈ 4.4 µg/mL) | MIC [5]: 25.1 µM (≈ 35 µg/mL) | MIC [6]: 6.17 µM (≈ 8.6 µg/mL) | MIC [7]: 6.17 µM (≈ 8.6 µg/mL) | MIC [8]: 25.1 µM (≈ 35 µg/mL) | MIC [9]: 25.1 µM (≈ 35 µg/mL) | MIC [10]: ≥ 50.2 µM | MIC [11]: 3.15 µM (≈ 4.4 µg/mL) | MIC [12]: 6.17 µM (≈ 8.6 µg/mL) | MIC [13]: 3.15 µM (≈ 4.4 µg/mL) | MIC [14]: 25.1 µM (≈ 35 µg/mL) | MIC [15]: 1.58 µM (≈ 2.2 µg/mL) | MIC [16]: 0.43 µM (≈ 0.6 µg/mL) | MIC [17]: 6.17 µM (≈ 8.6 µg/mL) | MIC [18]: 25.1 µM (≈ 35 µg/mL) | MIC [19]: 3.15 µM (≈ 4.4 µg/mL) | MIC [20]: 6.17 µM (≈ 8.6 µg/mL) | MIC [21]: 3.15 µM (≈ 4.4 µg/mL) | MIC (Pseudomonas aeruginosa 9): 12.2 µM (≈ 17 µg/mL)

Compound: CC[C@H](C)[C@H](NC(=O)[C@H](C)NC(=O)[C@H](CO)NC(=O)[C@@H]1CCCN1C(=O)[C@@H](NC(=O)[C@H](CC(C)C)NC(=O)[C@H](CO)NC(=O)[C@H](Cc1ccccc1)NC(=O)[C@H](CC(C)C)NC(=O)[C@@H](N)Cc1ccccc1)[C@@H](C)CC)C(=O)N[C@@H](CO)C(=O)NCC(=O)N[C@@H](CC(C)C)C(=O)N[C@H](C(=O)N[C@@H](CO)C(=O)N[C@@H](C)C(=O)N[C@@H](Cc1ccccc1)C(=O)N[C@@H](CCCCN)C(N)=O)[C@@H](C)CC [FLFSLIPSAISGLISAFK]
MIC [22]: ≥ 42.6 µM | MIC (Micrococcus luteus): ≥ 42.6 µM | MIC (Escherichia coli): 9.47 µM and 9.5 µM | MIC (Pseudomonas aeruginosa): 47.5 µM | MIC (Staphylococcus aureus): 8.37 µM (≈ 16 µg/mL) | MIC (Bacillus subtilis): 25.5 µM (≈ 48.8 µg/mL) | MIC [23]: 25.5 µM (≈ 48.7 µg/mL)

Compound: CC[C@H](C)[C@H](NC(=O)CN)C(=O)N[C@@H](CC(C)C)C(=O)N[C@@H](CC(=O)O)C(=O)N[C@H](C(=O)N[C@@H](Cc1ccccc1)C(=O)N[C@@H](CCCCN)C(=O)NCC(=O)N[C@H](C(=O)N[C@@H](C)C(=O)N[C@@H](CCCCN)C(=O)NCC(=O)N[C@H](C(=O)N[C@@H](C)C(=O)N[C@@H](CCCCN)C(=O)N[C@@H](CC(=O)O)C(=O)N[C@@H](CC(C)C)C(=O)N[C@@H](C)C(=O)N[C@H](C(=O)N[C@@H](Cc1cnc[nH]1)C(=O)N[C@@H](CCSC)C(=O)N[C@@H](CC(C)C)C(=O)N[C@@H](CCC(=O)O)C(=O)N[C@@H](CCCCN)C(=O)N[C@@H](CC(C)C)C(=O)N[C@@H](CCCCN)C(=O)N[C@H]1CSSC[C@@H](C(=O)O)NC(=O)CNC(=O)[C@H]([C@@H](C)O)NC(=O)[C@H](CCSC)NC(=O)[C@H](CCCCN)NC1=O)C(C)C)C(C)C)C(C)C)[C@@H](C)O [GILDTFKGVAKGVAKDLAVHMLEKLKCKMTGC]
MIC [1]: 40 µM (≈ 136 µg/mL) | MIC [2]: 25 µM (≈ 85.1 µg/mL) | MIC [3]: ≥ 40 µM

Continued, in another order:

MIC [24]: 10.9 µM (≈ 31.9 µg/mL) | MIC [1]: 1.3 µM (≈ 3.8 µg/mL) | MIC [6]: 10 µM (≈ 29.3 µg/mL) | MIC [25]: 10 µM (≈ 29.3 µg/mL) | MIC (Candida albicans): 21.8 µM (≈ 63.8 µg/mL) | MIC (Candida tropicalis): 10.9 µM (≈ 31.9 µg/mL) | MIC [26]: 1.3 µM (≈ 3.8 µg/mL) | MIC [27]: 40 µM (≈ 117 µg/mL) | MIC [28]: 2.5 µM (≈ 7.32 µg/mL) | MIC [29]: 2.5 µM (≈ 7.32 µg/mL)
Compound: CSCC[C@H](NC(=O)[C@H](CC(=O)O)NC(=O)[C@@H](NC(=O)[C@@H](NC(=O)[C@H](C)NC(=O)[C@H](CC(N)=O)NC(=O)[C@H](CC(C)C)NC(=O)[C@H](C)NC(=O)[C@H](C)NC(=O)[C@H](CCCCN)NC(=O)CNC(=O)[C@H](C)NC(=O)[C@H](C)NC(=O)[C@H](CCCCN)NC(=O)CNC(=O)[C@@H](NC(=O)[C@H](CC(N)=O)NC(=O)[C@H](CCCCN)NC(=O)[C@H](CC(C)C)NC(=O)[C@H](CC(C)C)NC(=O)[C@@H](NC(=O)[C@H](CCCCN)NC(=O)[C@H](Cc1c[nH]c2ccccc12)NC(=O)[C@H](CC(C)C)NC(=O)[C@H](C)N)[C@@H](C)O)C(C)C)C(C)C)[C@@H](C)O)C(=O)N[C@H](C(=O)N[C@@H](CC(N)=O)C(=O)N[C@@H](CCC(N)=O)C(=O)O)C(C)C [ALWKTLLKNVGKAAGKAALNAVTDMVNQ]

MIC [1]: 3.12 µM (≈ 8 µg/mL) | MIC [30]: 3.12 µM (≈ 8 µg/mL) | MIC [31]: 1.56 µM (≈ 4 µg/mL) | MIC [28]: 3.12 µM (≈ 8 µg/mL) | MIC [32]: 6.24 µM (≈ 16 µg/mL)
Compound: CC(C)C[C@H](NC(=O)[C@H](CCCCN)NC(=O)CNC(=O)[C@H](CCCCN)NC(=O)[C@H](Cc1ccccc1)NC(=O)[C@H](CCCCN)NC(=O)[C@H](Cc1c[nH]c2ccccc12)NC(=O)[C@H](CCCN=C(N)N)NC(=O)[C@H](Cc1ccccc1)NC(=O)[C@H](CCCN=C(N)N)NC(=O)[C@H](CCCN=C(N)N)NC(=O)[C@H](Cc1ccc(O)cc1)NC(=O)[C@H](CCCCN)NC(=O)[C@H](CCCCN)NC(=O)[C@H](CS)NC(=O)CN)C(=O)N[C@@H](Cc1ccccc1)C(=O)N[C@@H](CC(C)C)C(=O)N[C@@H](Cc1ccccc1)C(=O)NCC(N)=O [GCKKYRRFRWKFKGKLFLFG]
MIC (Vibrio cholerae CUN 09): 6.24 µM (≈ 16 µg/mL)

MIC [4]: 12.2 µM (≈ 17 µg/mL) | MIC [1]: 1.58 µM (≈ 2.2 µg/mL) | MIC [5]: 12.2 µM (≈ 17 µg/mL) | MIC [6]: 3.16 µM (≈ 4.4 µg/mL) | MIC [7]: 3.16 µM (≈ 4.4 µg/mL) | MIC [8]: 1.58 µM (≈ 2.2 µg/mL) | MIC [9]: 1.58 µM (≈ 2.2 µg/mL) | MIC [10]: 1.58 µM (≈ 2.2 µg/mL) | MIC [11]: 1.58 µM (≈ 2.2 µg/mL) | MIC [12]: 1.58 µM (≈ 2.2 µg/mL) | MIC [13]: 1.58 µM (≈ 2.2 µg/mL) | MIC [14]: 3.16 µM (≈ 4.4 µg/mL) | MIC [15]: 0.791 µM (≈ 1.1 µg/mL) | MIC [16]: 0.791 µM (≈ 1.1 µg/mL) | MIC [17]: 0.791 µM (≈ 1.1 µg/mL) | MIC [18]: 1.58 µM (≈ 2.2 µg/mL) | MIC [19]: 3.16 µM (≈ 4.4 µg/mL) | MIC [20]: 0.791 µM (≈ 1.1 µg/mL) | MIC [21]: 1.58 µM (≈ 2.2 µg/mL) | MIC (Pseudomonas aeruginosa 9): 6.18 µM (≈ 8.6 µg/mL)
Compound: CC[C@H](C)[C@H](NC(=O)[C@H](Cc1c[nH]c2ccccc12)NC(=O)[C@H](CCCCN)NC(=O)[C@@H](N)CCCN=C(N)N)C(=O)N[C@@H](Cc1c[nH]c2ccccc12)C(=O)N[C@@H](CCCN=C(N)N)C(=O)N[C@@H](Cc1c[nH]c2ccccc12)C(=O)N[C@@H](Cc1ccccc1)C(=O)N[C@@H](CC(C)C)C(=O)O [RKWIWRWFL]
